In US10016440B2, “Methods of enhancing antibody-dependent cellular cytotoxicity” (VentiRx Pharmaceuticals, Inc., priority 2010, dated 2018):

Tests used:
Format in all cases: cell-based, human
[1] = system: breast cancer cell line SKBR3; assay: Herceptin-mediated ADCC of SKBR3 cells by PBMC effector cells (Calcein AM release); conditions: PBMCs activated with the ADCC enhancer (FIG. 3)
Description: (§1) Human Peripheral blood mononuclear cells (PBMCs) were isolated by Ficoll™ density gradient centrifugation and resuspended in RPMI containing 2% heat-inactivated FBS. PBMCs at a concentration of 1 to 3 million cells per mL were incubated with 10-500 nM ADCC enhancer in a humidified CO2 incubator for 18-72 hrs. Activated PBMCs were then used as effector cells in NK and ADCC assays. PBMCs activated with the ADCC enhancer were tested for the ability to enhance killing of the NK sensitive target cell line K562 or various tumor cells coated with monoclonal antibodies. Target cells were labeled with the fluorescent dye Calcein AM for 1 hour at 37° C. in a dark humidified CO2 incubator. […] Activated effector cells and labeled target cells were incubated in 96-well tissue culture plates at for 4 hours at 37° C. in a dark humidified CO2 incubator in an assay buffer containing HBSS+Ca/Mg+5% FBS. […] Fluorecence was quantified with a fluorescent microtiter plate reader. The % specific lysis was calculated as (Sample fluorescence-spontaneous fluorescence)*100/(100% fluorescence-spontaneous). 100% fluorescence was determined from wells that contained labeled target cells and detergent such at 0.1% Tween-20 or Triton X-100. Spontaneous fluorescence was determined from wells that contained assay buffer and target cells but not effector cells.

[2] = system: breast cancer cell line MDA-MB-231; assay: Herceptin-mediated ADCC of MDA-MB-231 cells by PBMC effector cells (Calcein AM release); conditions: PBMCs activated with the ADCC enhancer (FIG. 3)
Description: as §1

[3] = system: rituximab-coated HS-Sultan cells; assay: Rituximab-mediated ADCC of HS-Sultan cells with PBMC from donors genotyped for FcgR polymorphisms; conditions: for baseline ADCC (percent specific lysis): buffer control, E:T 50:1 (FIG. 4); for rituximab-mediated ADCC activity: unstimulated PBMC
Description: Percent specific lysis is shown for Rituxan-coated HS-Sultan cells incubated with PBMC effector cells at an E:T ratio of 50:1. PBMCs from a patient with the high affinity genotype FcgR2a131 H/H and FcgR3a V/V (solid rectangles) or a patient with the lower affinity genotype FcgR2a131 […] and FcgR3a V/F (open rectangles) were evaluated for ADCC after stimulation with buffer control (baseline) or stimulation with 500 nM ADCC enhancer.
ADCC is mediated through immune effector cells included NK cells that engage the Fc portion of the monoclonal antibody through specific receptors. Patients with single nucleotide polymorphisms in these receptors such as FcRgamma3a position 158 and FcRgamma2a position 131 have a poorer clinical prognosis presumably from poor ADCC due to a lower affinity of the receptor for the monoclonal antibody. […] To determine if this common polymorphism affects the baseline antibody-dependent cellular cytoxicity (ADCC) response and/or response to the ADCC enhancer molecule of the present invention (Compound VTX-2337), PBMCs from donors were genotyped for the two alleles encoding the F and V isoforms, respectively, and tested in vitro. We analyzed rituximab-mediated ADCC using unstimulated PBMC or VTX-2337-stimulated PBMC from 15 donors, including 10 donors with FF or FV phenotype and 5 donors with VV phenotype.
Blood was collected from healthy donors and PBMCs were isolated using a Ficoll gradient. PBMCs were activated by culturing them in the presence of 500 nM VTX-2337 at 37° C. in a humidified 5% CO2 incubator for 48 hours. Activated PBMCs were then incubated with rituximab-coated HS-Sultan cells loaded at a ratio of 100:1 for 4 hours. Lysis was determined by measuring release of the fluorescent dye Calcein AM from the HS-Sultan cells.

Row | Compound | killing of Herceptin coated SKBR3 targets [1] [%] | killing of Herceptin coated MDA-MB-231 targets [2] | rituximab-mediated ADCC ([3]; PBMC stimulated with 500 nM VTX-2337 for 48 hours, low affinity FF/FV group, E:T 100:1 (FIG. 5)) [%] | baseline ADCC (percent specific lysis) ([3]; patient with high affinity genotype FcgR2a131 H/H and FcgR3a V/V) | baseline ADCC (percent specific lysis) ([3]; patient with lower affinity genotype FcgR2a131 A/A and FcgR3a V/F) [%] | rituximab-mediated ADCC activity ([3]; FF/FV donors, E:T 100:1 (FIG. 5)) [% specific lysis] | rituximab-mediated ADCC activity ([3]; VV donors, E:T 100:1 (FIG. 5)) [% specific lysis]
1 | CCCN(CCC)C(=O)C1=Cc2ccc(-c3ccc(C(=O)N4CCCC4)cc3)cc2N=C(N)C1 [ADCC enhancer, {2-amino-8-[4-(pyrrolidinylcarbonyl)phenyl]-(3H-benzo[f]azepin-4-yl)}-N,N-dipropylcarboxamide] | > 80 | 40-60% | 40.0±4.1 | – | – | – | –
2 | Rituxan: anti-CD20 monoclonal antibody rituximab (Rituxan) | – | – | – | approximately 30% | 10 | 20.5±2.5 | 31.7±2.9
